Measurements taken from publication PMC9154793, “Design, synthesis, and biological evaluation of triazole-pyrimidine-methylbenzonitrile derivatives as dual A2A/A2B adenosine receptor antagonists” (Journal of Enzyme Inhibition and Medicinal Chemistry, 2022).

Tests used:
[1] = target: human A2A AR (Homo sapiens, UniProt P29274); assay: cAMP functional assay in CHO-K1/ADORA2A/Gα15 cells (NECA-stimulated, HTRF); format: cell-based; settings: for inhibition at 0.01 µM / inhibition at 0.1 µM / inhibition at 1 µM: CHO-K1; for inhibition at 0.01 µM: read-out: hA2A AR (%) inhibition of cAMP, 10 nM; for inhibition at 0.1 µM: read-out: hA2A AR (%) inhibition of cAMP, 100 nM; for inhibition at 1 µM: read-out: hA2A AR (%) inhibition of cAMP, 1000 nM;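 as to all read-outs here: inhibition of NECA-driven intracellular cAMP build-up in the A2A-expressing cells, quantified with cAMP-d2 plus Eu3+-labelled anti-cAMP detection reagent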
Procedure: (§16) In the cAMP assay, CHO-K1/ADORA2A/Gα15 cells expressing human A2A AR and CHO-K1/ADORA2b/Gα15 cells expressing human A2B AR were activated by 5′-(N-ethylcarboxamido)adenosine (NECA) and triggered the accumulation of intracellular cAMP concentration.
(§17) CHO-K1/ADORA2A/Gα15 cells expressing human A2A AR and CHO-K1/ADORA2b/Gα15 cells expressing human A2B AR were both constructed by Genscript Biotech Corporation. […] The test stock solutions were diluted with different gradients for use. The procedure was exemplified by the cAMP functional assay on the A2A receptor: 10,000 cells/well of CHO-K1/ADORA2A/Gα15 were seeded in a 384-well plate in 20 μl of assay buffer. […] Then, 10 μl of detection reagent (cAMP-d2 and anti-cAMP-Eu3+) was added into each well of the plate and incubated at room temperature for 1 h.

[2] = target: T1, human A2B AR (Homo sapiens, UniProt P29275); assay: cAMP functional assay in CHO-K1/ADORA2b/Gα15 cells (NECA-stimulated, HTRF); format: cell-based; settings: mean ± SEM; for inhibition at 0.1 µM: CHO-K1, read-out: hA2B AR (%) inhibition of cAMP, 100 nM
T1 sequence (P29275 1-332): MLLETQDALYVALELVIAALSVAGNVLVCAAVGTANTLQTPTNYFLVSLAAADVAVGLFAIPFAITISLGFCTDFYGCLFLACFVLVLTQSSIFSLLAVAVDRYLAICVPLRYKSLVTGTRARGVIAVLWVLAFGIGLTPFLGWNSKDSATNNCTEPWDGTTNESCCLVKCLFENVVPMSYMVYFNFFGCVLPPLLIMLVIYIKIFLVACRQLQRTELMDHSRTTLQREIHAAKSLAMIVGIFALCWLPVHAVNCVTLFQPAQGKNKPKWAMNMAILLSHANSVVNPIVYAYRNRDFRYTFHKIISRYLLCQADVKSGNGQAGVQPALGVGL
Procedure: as §16, §17

[3] = Metabolic stability in human liver microsomes; format: in vitro ADME
Procedure: (§1) The metabolic stability is an important focus for further compound optimisation. Compounds 7f, 7i, and AB928 were chosen to evaluate the stability in rat liver microsomes and human liver microsomes. For the microsomal metabolic experiment, 7-ethoxycoumarin (7-EC) was used as a control. As shown in Table 4 (see Supporting information for raw data), the CLint(liver) of 7-EC in rats and humans was 10.0 and 9.0 ml/min/g liver, respectively, indicating the experimental test system was reliable.
(§2) Metabolic stabilities of compounds 7f, 7i, and AB928 in liver microsomes were studied with pooled human (male) liver microsomes solution (20 mg/ml) and male Sprague–Dawley rats pooled liver microsomes solution (20 mg/ml) purchased from Research Institute for Liver Diseases (Shanghai) Co. Ltd. Both liver microsomes solutions (140 μl) were diluted by 3948 μl of water and 280 μl of phosphate buffered saline. The assay procedure: 640 μl of diluted liver microsomes solution was added to a solution of compound working solution (16 μl, 25 μM in DMSO) and the mixed solution was incubated at 37 °C for 5 min. Then 160 μl of NADPH generating system was added and take out 100 μl from the mixed solution was added 200 μl of acetonitrile solution to stop the reaction at the set incubation time (0 min, 10 min, 20 min, 30 min, 40 min, 50 min, and 60 min). All stopped reaction solutions were vortex mixed (3 min) and centrifuged (10,000 rpm, 4 °C for 10 min). Then 50 μl of the supernatant was analysed by UPLC-MS/MS system (details of the analytical method see Supporting information). […]
(§3) 8. Metabolic stability in human and rat liver microsomes
(§4) Metabolic stabilities of compounds 7f, 7i and AB928 in liver microsomes were studied with pooled human (male) liver microsomes solution (20 mg/mL) and male Sprague - Dawley rats pooled liver microsomes solution (20 mg/mL) purchased from Research Institute for Liver Diseases (Shanghai) Co. Ltd. Both liver microsomes solutions (140 μL) were diluted by 3948 μL of water and 280 μL of phosphate buffered saline. The assay procedure: 640 μL of diluted liver microsomes solution was added to a solution of compound working solution (16 μL, 25 μM in DMSO) and the mixed solution was […]
(§5) (1 picture or pasted object on this page, not shown here) […]
(§6) incubated at 37 ℃ for 5 min. Then 160 μL of NADPH generating system was added and take out 100 μL from the mixed solution was added 200 μL of acetonitrile solution to stop the reaction at the set incubation time (0 min, 10 min, 20 min, 30 min, 40 min, 50 min, and 60 min). All stopped reaction solutions were vortex mixed (3 min) and centrifuged (10000 rpm, 4 ℃ for 10 min). Then 50 μL of the supernatant was analyzed […]
(§7) 8.2 Chromatography and mass spectrometry conditions
(§8) UPLC was performed using an […] UPLC system (Waters, Milford, MA, […]
(§9) USA). Separation was achieved on a Waters BEH C18 column(100 mm × 2.1 mm， 1.7 μm) at 40 ℃. The injection volume of the sample solution was 5 μL. The mobile phase consisted of water (0.1% formic acid and ammonium acetate) and acetonitrile solution (20:80, v/v) at a flow rate of 0.4 mL/min within a running time of 6 min. Mass spectrometric analysis was performed on a Waters Xevo TQ-S triple quadrupole instrument using electrospray ionization in positive mode. Quantification was performed using multiple reaction monitoring (MRM) mode to monitor precursor-product ion transitions (Table S1).
(§10) Table S1. Conditions of MRM Detection. […]
(§11) Table S2. Raw data of metabolic stability in human and rat liver microsomes. […]
(§12) (min) Hum Rat Hum Rat Hum Rat Hum Rat
(§13) 9. Analytical method of pharmacokinetics assay
(§14) Animal experiments were performed according to the institutional ethical guidelines on animal care and approved by the Institute Animal Care and Use Committee at Binzhou […]
(§15) Female Bal b/c mice (sourced from Jinan Pengyue Experimental Animal Breeding […]

[4] = Metabolic stability in rat liver microsomes; format: in vitro ADME, Sprague–Dawley rats
Procedure: as §1, §2, §3, §4, §5, §6, §7, §8, §9, §10, §11, §12, §13, §14, §15

[5] = compound at 10 nM, relative to ZM241385 at 1 μM, mean ± SEM
[6] = compound at 100 nM, relative to ZM241385 at 1 μM, mean ± SEM
[7] = compound at 1000 nM, relative to ZM241385 at 1 μM, mean ± SEM
[8] = compound at 100 nM, relative to ZM241385 at 1 μM

human A2A AR, sequence (P29274 whole entry): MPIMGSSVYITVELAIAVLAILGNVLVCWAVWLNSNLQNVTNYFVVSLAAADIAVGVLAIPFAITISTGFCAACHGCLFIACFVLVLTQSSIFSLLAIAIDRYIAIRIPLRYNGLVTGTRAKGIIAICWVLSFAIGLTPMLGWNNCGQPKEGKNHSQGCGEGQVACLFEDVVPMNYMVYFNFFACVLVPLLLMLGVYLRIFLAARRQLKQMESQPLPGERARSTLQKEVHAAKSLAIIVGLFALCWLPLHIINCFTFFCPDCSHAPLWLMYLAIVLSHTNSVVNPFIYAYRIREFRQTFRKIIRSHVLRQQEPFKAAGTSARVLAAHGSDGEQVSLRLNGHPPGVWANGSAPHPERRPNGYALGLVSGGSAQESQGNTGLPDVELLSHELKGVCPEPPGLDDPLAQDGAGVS

Compound | inhibition at 0.01 µM [1, 5] [%] | inhibition at 0.1 µM [1, 6] [%] | inhibition at 1 µM [1, 7] [%] | inhibition at 0.1 µM [2, 8] [%] | melting point [°C] | further results
Cc1ccc(-c2cc(-c3cn(Cc4cccc(C(C)(C)O)n4)nn3)nc(N)n2)o1 [Compound 17, 2-(6-((4-(2-Amino-6-(5-methylfuran-2-yl)pyrimidin-4-yl)-1H-1,2,3-triazol-1-yl)methyl)pyridin-2-yl)propan-2-ol] | 17.6 ± 2.78 | 92.28 ± 0.61 | 92.7 ± 2.87 | 64.4 ± 0.89 | 188 to 189 | IC50 ([1]; CHO cells expressing hA2A AR, mean ± SEM, read-out: cAMP IC50 hA2A AR): 321 ± 94 nM; fold less active than compound 7i (cAMP IC50, A2A receptor) ([1]; ratio of cAMP IC50 values vs 7i): 52 fold; IC50 ([2]; CHO cells expressing hA2B AR, read-out: cAMP IC50 hA2B AR): 80 ± 13.4 nM
Cc1c(C#N)cccc1-c1cc(-c2cn(Cc3ccc4ccccc4n3)nn2)nc(N)n1 [Compound 7a, 3-(2-Amino-6–(1-(quinolin-2-ylmethyl)-1H-1,2,3-triazol-4-yl)pyrimidin-4-yl)-2-methylbenzonitrile] | 28.2 ± 8.79 | 16.5 ± 1.9 | 43.5 ± 0.77 | 3.51 ± 3.19 | 203 to 204 | 
Cc1c(C#N)cccc1-c1cc(-c2cn(Cc3ccc4cccc(N)c4n3)nn2)nc(N)n1 [Compound 7c, 3-(2-amino-6-(1-((8-aminoquinolin-2-yl)methyl)-1H-1,2,3-triazol-4-yl)pyrimidin-4-yl)-2-methylbenzonitrile] | 35.9 ± 5.39 | 38.2 ± 10.8 | 48.5 ± 1.45 | 85.43 ± 0.04 | 268 to 269 | 
Cc1c(C#N)cccc1-c1cc(-c2cn(Cc3cccc(C(=O)N4CC(O)C4)n3)nn2)nc(N)n1 [Compound 7k, 3-(2-Amino-6-(1-((6–(3-hydroxyazetidine-1-carbonyl)pyridin-2-yl)methyl)-1H-1,2,3-triazol-4-yl)pyrimidin-4-yl)-2-methylbenzonitrile] | 21.7 ± 5.43 | 70.5 ± 6.37 | 94.9 ± 2.05 | 78.3 ± 2.66 |  | 
CCOc1ccc2ccc(=O)oc2c1 [Compound 7-EC, 7-ethoxycoumarin, reference compound] |  |  |  |  |  | CLint(liver) Hum ([3]; human, microsomes): 9.0 mL/min/g; half-life at 0.49 µM ([3]; male, human, microsomes): 8.12 min; remaining at 20 min, 0.49 µM ([3]; male, human, microsomes): 11.5%; remaining at 0.5 h, 0.49 µM ([3]; male, human, microsomes): 3.54%; remaining at 40 min, 0.49 µM ([3]; male, human, microsomes): 1.6%; remaining at 50 min, 0.49 µM ([3]; male, human, microsomes): 0.97%; remaining at 1 h, 0.49 µM ([3]; male, human, microsomes): 0.72%; remaining at 10 min, 0.49 µM ([3]; male, human liver microsomes, 10 min, read-out: %Remaining Hum, 10 min): 34%; remaining at 10 min, 0.49 µM ([4]; male, Sprague-Dawley, pooled rat liver microsomes, rat liver microsomes, 10 min): 49%; remaining at 20 min, 0.49 µM ([4]; male, Sprague-Dawley, pooled rat liver microsomes, rat liver microsomes, 20 min): 23%; remaining at 0.5 h, 0.49 µM ([4]; male, Sprague-Dawley, pooled rat liver microsomes, rat liver microsomes, 30 min): 10.4%; remaining at 40 min, 0.49 µM ([4]; male, Sprague-Dawley, pooled rat liver microsomes, rat liver microsomes, 40 min): 2.98%; remaining at 50 min, 0.49 µM ([4]; male, Sprague-Dawley, pooled rat liver microsomes, rat liver microsomes, 50 min): 1.02%; remaining at 1 h, 0.49 µM ([4]; male, Sprague-Dawley, pooled rat liver microsomes, rat liver microsomes, 60 min, read-out: Remaining (%, T = 60min) Rat): 0.35%; half-life at 0.49 µM ([4]; male, Sprague-Dawley, rat, pooled rat liver microsomes, read-out: T1/2 Rat): 7.26 min; CLint(liver) Rat ([4]; rat liver microsomes): 10.0 mL/min/g
COc1ccc(Cn2cc(-c3cc(-c4cccc(C#N)c4C)nc(N)n3)nn2)cc1 [Compound 7n, 3-(2-Amino-6-(1-(4-methoxybenzyl)-1H-1,2,3-triazol-4-yl)pyrimidin-4-yl)-2-methylbenzonitrile] | 18.8 ± 3.88 | 29.8 ± 0.38 | 54.8 ± 2.41 | 63.5 ± 4.93 | 149 to 150 | 
3-(2-Amino-6-(1-((6–(2-(hydroxymethyl)pyrrolidine-1-carbonyl)pyridin-2-yl)methyl)-1H-1,2,3-triazol-4-yl)pyrimidin-4-yl)-2-methylbenzonitrile [Compound 7l] |  |  |  |  |  | hA2A AR (%) inhibition of cAMP, 10 nM [1, 5]: 13.46 ± 3.71%; hA2A AR (%) inhibition of cAMP, 100 nM [1, 6]: 52.3 ± 8.46%; hA2A AR (%) inhibition of cAMP, 1000 nM [1, 7]: 89.66 ± 1.31%; hA2B AR (%) inhibition of cAMP, 100 nM [2, 8]: 84.34 ± 4.72%
COc1cccc(Cn2cc(-c3cc(-c4cccc(C#N)c4C)nc(N)n3)nn2)c1 [Compound 7m, 3-(2-Amino-6-(1-(3-methoxybenzyl)-1H-1,2,3-triazol-4-yl)pyrimidin-4-yl)-2-methylbenzonitrile] | 21.5 ± 4.32 | 28.6 ± 4.03 | 69.6 ± 1.01 | 69.4 ± 4.01 | 163 to 164 | 
COC(=O)c1cccc(Cn2cc(-c3cc(-c4cccc(C#N)c4C)nc(N)n3)nn2)n1 [Compound 7d, Methyl 6-((4-(2-amino-6-(3-cyano-2-methylphenyl)pyrimidin-4-yl)-1H-1,2,3-triazol-1-yl)methyl)picolinate] | 40.8 ± 9.01 | 63.4 ± 1.39 | 91.3 ± 4.28 | 80.3 ± 1.84 | 105 to 106 | 
Cc1c(C#N)cccc1-c1cc(-c2cn(Cc3cccc(-c4ncc[nH]4)n3)nn2)nc(N)n1 [Compound 7g, 3-(6-(1-((6-(1H-imidazol-2-yl)pyridin-2-yl)methyl)-1H-1,2,3-triazol-4-yl)-2-aminopyrimidin-4-yl)-2-methylbenzonitrile] | 19.6 ± 2.13 | 56 ± 2.03 | 107.3 ± 0.89 | 52.9 ± 3.96 | 139 to 140 | 
